Results on 74 compounds are retold here after patent US8329675B2, “Inhibitors of fatty acid amide hydrolase” (Infinity Pharmaceuticals, Inc., priority 2006, dated 2012).

The structures appear in SMILES notation.

The assay deals with T1, human FAAH (Homo sapiens, UniProt O00519).
T1 construct: host or cells: COS-7 cells, transient transfection; 13,000 g membrane fraction solubilised in 1% Triton X-100
T1 sequence (O00519 1-579): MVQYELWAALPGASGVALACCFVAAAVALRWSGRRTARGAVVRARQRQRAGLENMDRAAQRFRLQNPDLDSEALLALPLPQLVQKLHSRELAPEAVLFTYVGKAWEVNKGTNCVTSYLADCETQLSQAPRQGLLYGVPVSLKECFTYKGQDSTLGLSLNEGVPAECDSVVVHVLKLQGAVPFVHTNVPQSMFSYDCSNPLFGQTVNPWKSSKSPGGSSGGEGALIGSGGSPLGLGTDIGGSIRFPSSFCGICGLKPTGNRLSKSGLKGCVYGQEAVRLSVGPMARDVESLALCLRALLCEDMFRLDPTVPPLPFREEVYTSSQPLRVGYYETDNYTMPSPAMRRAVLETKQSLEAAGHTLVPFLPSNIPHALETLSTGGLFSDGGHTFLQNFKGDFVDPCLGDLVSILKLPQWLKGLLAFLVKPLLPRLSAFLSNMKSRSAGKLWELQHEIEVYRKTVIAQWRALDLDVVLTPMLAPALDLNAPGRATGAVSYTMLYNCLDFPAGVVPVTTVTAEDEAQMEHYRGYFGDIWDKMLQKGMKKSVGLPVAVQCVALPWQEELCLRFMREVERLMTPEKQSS
Description: Human FAAH biochemical inhibition assay (AMC arachidonoyl amide fluorescence). The note with it: Table 2, human FAAH (no asterisk); read-out: Activity (Ki). A digest of the protocol: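 Solubilized membrane fraction from COS-7 cells transfected with human FAAH, used at a final 0.05 mg/ml in 50 mM Hepes pH 7.5, 1 mM EDTA, 0.2% Triton X-100. Inhibitor pre-incubated 30 min at room temperature; 20 uM final AMC arachidonoyl amide added, reaction run 4 h at room temperature, fluorescence read.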
By Ki is commonly meant a dissociation constant, usually derived from enzyme kinetics or from competition with a known ligand. Regarding `CN(C(=O)c1ccccc1)c1ccc(B(O)O)cc1` [II-235], the inhibition constant Ki is 10 to 1000 nM. On to `CC(C)OC(=O)c1cccc(Oc2ccc(B(O)O)cc2)c1` [II-236], for which the Ki was less than 10 nM. To `OB(O)c1ccc(OC2CCCCC2)cc1` [II-237] belongs less than 10 nM; to `CC(Oc1ccc(B(O)O)cc1)c1ccccc1` (centres unmarked) [II-238], 10 to 100 nM; to `COc1c(C)cc(Oc2ccc(B(O)O)cc2)cc1C` [II-239], 10 to 100 nM.

Consider `COc1cc(Oc2ccc(B(O)O)cc2)cc(OC)c1OC` [II-240], for which the inhibitory constant (Ki) is 10 to 100 nM.

With `OB(O)c1ccc(CBr)cc1` [II-241], the Ki was more than 1000 nM. As for `OB(O)c1ccc(COc2ccccc2)cc1` [II-242], the inhibitory constant (Ki) is less than 10 nM. To `CCCCOc1cccc(Oc2ccc(B(O)O)cc2)c1` [II-243] belongs less than 10 nM; to `OB(O)c1ccc(Oc2cccc(OC(F)(F)F)c2)cc1` [II-244], less than 10 nM. As for `CC(C)Oc1cccc(Oc2ccc(B(O)O)cc2)c1` [II-245], the Ki was less than 10 nM. Consider `CC(C)c1cccc(Oc2ccc(B(O)O)cc2)c1` [II-246], for which the Ki is less than 10 nM.

Consider `Cc1cc(COC(=O)c2ccc(B(O)O)cc2)ccc1F` [II-247], for which the Ki lay in the range of 10 to 100 nM.

With `O=C(Cc1ccccc1)Nc1ccc(B(O)O)cc1` [II-248], the Ki was in the range of 10 to 100 nM. In the case of `O=C(Nc1ccc(B(O)O)cc1)c1ccccc1` [II-249], the Ki was 10 to 1000 nM. Regarding `Cc1cc(OCc2ccc(B(O)O)cc2)ccc1Cl` [II-250], the Ki is less than 10 nM. In the case of `CCOc1ccc(Oc2ccc(B(O)O)cc2)cc1F` [II-251], the inhibition constant Ki is less than 10 nM. As for `COc1ccc(Oc2ccc(B(O)O)cc2)cc1Cl` [II-252], the Ki was less than 10 nM. For the compound `Cc1cc(Oc2ccc(B(O)O)cc2)ccc1F` [II-253], the Ki was less than 10 nM.

With `Cc1cc(Oc2ccc(B(O)O)cc2)ccc1Cl` [II-254], the Ki is less than 10 nM. In the case of `COc1ccc(Oc2ccc(B(O)O)cc2)cc1F` [II-255], the inhibitory constant (Ki) was less than 10 nM.

For `OB(O)c1ccc(Oc2ccc(C(F)(F)F)c(Cl)c2)cc1` [II-256], the inhibitory constant (Ki) was less than 10 nM. On to `OB(O)c1ccc(Oc2ccc(Cl)c(C(F)(F)F)c2)cc1` [II-257], for which the inhibitory constant (Ki) was less than 10 nM. As for `OB(O)c1ccc(Oc2cc(Cl)cc(Cl)c2)cc1` [II-258], the Ki fell in the range of 10 to 100 nM. With `OB(O)c1ccc(Oc2ccc(Cl)c(Cl)c2)cc1` [II-259], the Ki was less than 10 nM.

`OB(O)c1ccc(Oc2cc(F)cc(F)c2)cc1` [II-260]: the Ki was less than 10 nM. Consider `OB(O)c1ccc(Oc2ccc(F)c(F)c2)cc1` [II-261], for which the Ki is less than 10 nM. On to `COc1ccc(Oc2ccc(B(O)O)cc2)cc1OC` [II-262], for which the Ki was less than 10 nM. `OB(O)c1ccc(Oc2cc(F)c(F)c(F)c2)cc1` [II-263]: the Ki was less than 10 nM. On to `COc1ccc(Oc2ccc(B3OC(C)(C)C(C)(C)O3)cc2)cc1OC` [II-264], for which the Ki was less than 10 nM.

As to `Cc1cc(COc2ccc(B(O)O)cc2F)ccc1F` [II-265], the Ki is less than 10 nM. Consider `Cc1ccc(F)c(COc2ccc(B(O)O)cc2)c1Cl` [II-266], for which the inhibition constant Ki is 10 to 100 nM.

For `Cc1cc(COc2ccc(B(O)O)cc2)ccc1F` [II-267], the inhibition constant (Ki) is 10 to 100 nM.

Turning to `Cc1cccc(COc2ccc(B(O)O)cc2)c1F` [II-268], the Ki fell in the range of 10 to 100 nM.

Regarding `OB(O)c1ccc(OCc2ccc(Cl)cc2)cc1` [II-269], the inhibition constant (Ki) was less than 10 nM.

With `Cc1cccc(COc2ccc(B(O)O)cc2)c1` [II-270], the inhibition constant (Ki) was in the range of 10 to 100 nM.

For `CCCCOc1ccc(Oc2ccc(B(O)O)cc2)cc1F` [II-271], the inhibitory constant (Ki) was less than 10 nM. Regarding `Cc1ccc(Oc2ccc(B(O)O)cc2)cc1F` [II-272], the Ki is less than 10 nM. The result for `CCCOc1ccc(Oc2ccc(B(O)O)cc2)cc1F` [II-273] reads less than 10 nM.

As for `OB(O)c1ccc(Oc2ccc3c(c2)OCO3)cc1` [II-274], the Ki is less than 10 nM. With `Cc1ccc(Oc2ccc(B(O)O)cc2)cc1[N+](=O)[O-]` [II-275], the Ki is less than 10 nM. With `Cc1ccc(Oc2ccc(B(O)O)cc2)cc1Cl` [II-276], the Ki was less than 10 nM. For the compound `Cc1ccc(Oc2ccc(B(O)O)cc2)cc1C` [II-277], the Ki was less than 10 nM.

As to `COc1ccc(Oc2ccc(B(O)O)cc2)cc1` [II-278], the Ki is less than 10 nM. The result for `COc1cccc(Oc2ccc(B(O)O)cc2)c1` [II-279] reads less than 10 nM; that for `Cc1ccc(Oc2ccc(B(O)O)cc2)cc1` [II-280], less than 10 nM; that for `Cc1cccc(Oc2ccc(B(O)O)cc2)c1` [II-281], less than 10 nM. Take `COc1cc(B(O)O)ccc1Oc1cccc(F)c1` [II-282]: the Ki was less than 10 nM. Regarding `Cc1cc(B(O)O)cc(C)c1Oc1cccc(F)c1` [II-283], the inhibition constant (Ki) lay within 10 to 100 nM. As for `COC(=O)c1ccc(Oc2ccc(B(O)O)cc2)cc1` [II-284], the Ki was less than 10 nM.

In the case of `COC(=O)c1cccc(Oc2ccc(B(O)O)cc2)c1` [II-285], the inhibition constant Ki was less than 10 nM. On to `Nc1ccc(Oc2ccc(B(O)O)cc2)cc1` [II-286], for which the Ki was 10 to 100 nM.

As to `Nc1cccc(Oc2ccc(B(O)O)cc2)c1` [II-287], the inhibition constant (Ki) fell in the range of 10 to 100 nM. Turning to `CC(C)(C)OC(=O)Nc1ccc(Oc2ccc(B(O)O)cc2)cc1` [II-288], the Ki was 10 to 100 nM. For `CC(C)(C)OC(=O)Nc1cccc(Oc2ccc(B(O)O)cc2)c1` [II-289], the Ki was in the range of 10 to 100 nM. On to `OB(O)c1ccc(Oc2ccc(F)cc2)cc1` [II-290], for which the inhibition constant (Ki) is less than 10 nM. On to `OB(O)c1ccc(Oc2cccc(F)c2)cc1` [II-291], for which the Ki is less than 10 nM. With `OB(O)c1ccc(Oc2ccncc2)cc1` [II-292], the inhibition constant (Ki) was in the range of 10 to 1000 nM. Regarding `OB(O)c1ccc(Oc2cccnc2)cc1` [II-293], the Ki is less than 10 nM.

Take `CC(=O)c1ccc(-c2ccc(B(O)O)cc2)cc1` [II-295]: the Ki was less than 10 nM. As for `CC(C)(C)c1ccc(-c2ccc(B(O)O)cc2)cc1` [II-296], the inhibition constant (Ki) was in the range of 10 to 1000 nM. Take `CCCc1ccc(-c2ccc(B(O)O)cc2)cc1` [II-297]: the inhibitory constant (Ki) fell in the range of 10 to 100 nM. As to `O=C(c1ccccc1)c1ccc(-c2ccc(B(O)O)cc2)cc1` [II-298], the Ki fell in the range of 10 to 100 nM. On to `CC(=O)Oc1ccc(-c2ccc(B(O)O)cc2)cc1` [II-299], for which the Ki lay in the range of 10 to 100 nM.

In the case of `COc1ccc(-c2ccc(B(O)O)cc2)cc1` [II-300], the inhibition constant Ki lay in the range of 10 to 100 nM. As for `OB(O)c1cnn(Cc2ccccc2)c1` [II-302], the inhibitory constant (Ki) is more than 1000 nM.

With `NC(=O)c1cccc(-c2cccc(B(O)O)c2)c1` [II-303], the Ki was more than 1000 nM. For `NC(=O)c1ccc(-c2cccc(B(O)O)c2)cc1` [II-304], the Ki was more than 1000 nM. To `OB(O)c1ccc(-c2ccccc2F)cc1F` [II-305] belongs less than 10 nM; to `OB(O)c1ccc(-c2ccc(F)cc2)cc1F` [II-306], less than 10 nM; to `OB(O)c1ccc(OCc2ccccc2)c(Cl)c1` [II-313], 10 to 100 nM. Take `OB(O)c1ccc(OCc2ccccc2)cc1` [II-314]: the inhibition constant (Ki) lay in the range of 10 to 100 nM. As to `OB(O)c1cccc(OCc2ccccc2)c1` [II-316], the Ki is 10 to 100 nM. In the case of `OB(O)c1ccc(Oc2ccccc2)cc1` [II-317], the inhibition constant (Ki) was less than 10 nM.
